Measurements as given in patent publication US20060069132A1, “Azolecarboxamide herbicides” (priority 2004, published 2006).

Key:
[1] = test system: barnyardgrass; assay: Test A pre-/postemergence herbicide test; format: in vivo, Echinochloa crus-galli
Method in brief: (§1)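 Greenhouse injury scoring (0–100, complete control = 100) at approximately ten days follows simultaneous pre- and postemergence application. Soil received a directed spray after seeding; seedlings of 2–10 cm at the one- to two-leaf stage were sprayed to runoff.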

[2] = test system: large crabgrass; assay: Test A pre-/postemergence herbicide test; format: in vivo, Digitaria sanguinalis
Method in brief: as §1

[3] = test system: giant foxtail; assay: Test A pre-/postemergence herbicide test; format: in vivo, Setaria faberi
Method in brief: as §1

[4] = test system: morningglory; assay: Test A pre-/postemergence herbicide test; format: in vivo, Ipomoea spp.
Method in brief: as §1

[5] = test system: redroot pigweed; assay: Test A pre-/postemergence herbicide test; format: in vivo, Amaranthus retroflexus
Method in brief: as §1

[6] = test system: velvetleaf; assay: Test A pre-/postemergence herbicide test; format: in vivo, Abutilon theophrasti
Method in brief: as §1

[7] = test system: barnyardgrass; assay: Test B pre-/postemergence herbicide test; format: in vivo, Echinochloa crus-galli
Method in brief: (§2)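 Greenhouse pot assay with simultaneous preemergence (treated seed) and postemergence (2–18 cm seedlings) applications of surfactant-containing, non-phytotoxic solvent formulations. Response scored visually 13–15 days later on a 0–100 scale, 100 meaning complete control.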

[8] = test system: Surinam grass; assay: Test B pre-/postemergence herbicide test; format: in vivo, Urochloa decumbens
Method in brief: (§3)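 Flooded paddy rice and barnyardgrass were treated at the 2-leaf stage; upland plantings received compound either on sown seed or on 1- to 4-leaf seedlings. All were kept 13–15 days in a greenhouse and scored visually, 0–100, relative to untreated plants.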

[9] = test system: cocklebur; assay: Test B pre-/postemergence herbicide test; format: in vivo, Xanthium strumarium
Method in brief: as §2

[10] = test system: corn; assay: Test B pre-/postemergence herbicide test; format: in vivo, Zea mays
Method in brief: as §3

[11] = test system: large crabgrass; assay: Test B pre-/postemergence herbicide test; format: in vivo, Digitaria sanguinalis
Method in brief: as §3

[12] = test system: giant foxtail; assay: Test B pre-/postemergence herbicide test; format: in vivo, Setaria faberi
Method in brief: as §3

[13] = test system: lambsquarters; assay: Test B pre-/postemergence herbicide test; format: in vivo, Chenopodium album
Method in brief: as §3

[14] = test system: morningglory; assay: Test B pre-/postemergence herbicide test; format: in vivo, Ipomoea coccinea
Method in brief: as §2

[15] = test system: pigweed; assay: Test B pre-/postemergence herbicide test; format: in vivo, Amaranthus retroflexus
Method in brief: as §3

[16] = test system: velvetleaf; assay: Test B pre-/postemergence herbicide test; format: in vivo, Abutilon theophrasti
Method in brief: as §3

[17] = test system: blackgrass; assay: Test B postemergence herbicide test; format: in vivo, Alopecurus myosuroides
Method in brief: (§4)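 Greenhouse test; postemergence application to plants at 1–4 leaves (2–18 cm); paddy species at 2 leaves; evaluated visually vs controls at 13–15 days; scale 0–100 (100 = complete control).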

[18] = test system: wheat; assay: Test B postemergence herbicide test; format: in vivo, Triticum aestivum; parameters: key to Wheat plant response rating: 0 = no effect, 100 = complete control
Method in brief: (§5)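 Postemergence plants were sprayed with formulated test chemicals at 2 to 18 cm height (1- to 4-leaf stage); paddy species were grown to the 2-leaf stage. After 13 to 15 days in a greenhouse, injury was rated visually against untreated controls on a 0–100 scale (0 = no effect, 100 = complete control).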

[19] = test system: wild oat; assay: Test B postemergence herbicide test; format: in vivo, Avena fatua
Method in brief: as §5

[20] = test system: rice; assay: Test B flooded paddy test; format: in vivo, Oryza sativa; conditions: scale 0 to 100 (0 no effect, 100 complete control)
Method in brief: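 After treating 2-leaf paddy plants or 2–18 cm postemergence plants (1 to 4 leaves) with formulated chemical, researchers kept them in a greenhouse for 13–15 days. Effects were judged visually versus controls: 0 indicates none, 100 total control.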

[21] = test system: small flower umbrella sedge; assay: Test B flooded paddy test; format: in vivo, Cyperus difformis; conditions: scale 0 to 100 (0 no effect, 100 complete control)
Method in brief: as §4

[22] = test system: ducksalad; assay: Test B flooded paddy test; format: in vivo, Heteranthera limosa; conditions: scale 0 to 100 (0 no effect, 100 complete control)
Method in brief: as §4

[23] = test system: barnyardgrass; assay: Test B flooded paddy test; format: in vivo, Echinochloa crus-galli; conditions: scale 0 to 100 (0 no effect, 100 complete control)
Method in brief: as §4

[24] = Postemergence, 250 g ai/ha, 0 to 100 scale, 0 no effect, 100 complete control
[25] = Postemergence, 1000 g ai/ha, 0 to 100 scale, 0 no effect, 100 complete control
[26] = Preemergence, 1000 g ai/ha, visual rating, 0 to 100 scale (0 no effect, 100 complete control)
[27] = preemergence, 250 g ai/ha, visual injury, 0 to 100 scale (0 no effect, 100 complete control)
[28] = Postemergence, 125 g ai/ha, scale 0 (no effect) to 100 (complete control)
[29] = Postemergence, 500 g ai/ha, visual rating after 13 to 15 days, scale 0 (no effect) to 100 (complete control)
[30] = Preemergence, 500 g ai/ha, scale 0 to 100
[31] = preemergence, 125 g ai/ha, 0 to 100 scale, 0 is no effect, 100 is complete control
[32] = 1000 g ai/ha, visual rating, 13 to 15 days
[33] = Postemergence, 500 g ai/ha, scale 0 (no effect) to 100 (complete control)
[34] = postemergence, 125 g ai/ha, scale 0 to 100

## CCN(CC)C(=O)c1cccc(NC(=O)c2cc(C(C)(C)C)nn2CC(F)(F)F)c1 [Compound 32]
[1]; [24]
  Barnyardgrass plant response rating: 0
[1]; [25]
  Plant response rating, Barnyardgrass: 0
[1]; [26]
  Barnyardgrass plant response rating: 0
[1]; [27]
  Barnyardgrass plant response rating: 0
[2]; [24]
  Crabgrass, Large plant response rating: 0
[2]; [25]
  Plant response rating, Crabgrass, Large: 0
[2]; [26]
  Crabgrass, Large plant response rating: 0
[2]; [27]
  Crabgrass, Large plant response rating: 0
[3]; [24]
  Foxtail, Giant plant response rating: 0
[3]; [25]
  Plant response rating, Foxtail, Giant: 0
[3]; [26]
  Foxtail, Giant plant response rating: 0
[3]; [27]
  Foxtail, Giant plant response rating: 0
[4]; [24]
  Morningglory plant response rating: 0
[4]; [25]
  Plant response rating, Morningglory: 0
[4]; [26]
  Morningglory plant response rating: 0
[4]; [27]
  Morningglory plant response rating: 0
[5]; [24]
  Pigweed plant response rating: 0
[5]; [25]
  Plant response rating, Pigweed: 0
[5]; [26]
  Pigweed plant response rating: 0
[5]; [27]
  Pigweed plant response rating: 0
[6]; [24]
  Velvetleaf plant response rating: 0
[6]; [25]
  Plant response rating, Velvetleaf: 0
[6]; [26]
  Velvetleaf plant response rating: 0
[6]; [27]
  Velvetleaf plant response rating: 0
[7]; [28]
  Barnyardgrass plant response rating: 0
[7]; [29]
  Plant response rating, Barnyardgrass: 10
[7]; [30]
  Barnyardgrass plant response rating: 60
[8]; [29]
  Plant response rating, Surinam Grass: 10
[8]; [30]
  Surinam Grass plant response rating: 30
[8]; [31]
  Plant response rating, Surinam Grass: 0
[9]; [28]
  Cocklebur plant response rating: 10
[9]; [29]
  Plant response rating, Cocklebur: 20
[9]; [30]
  Cocklebur plant response rating: 0
[10]; [28]
  Corn plant response rating: 10
[10]; [29]
  Plant response rating, Corn: 10
[10]; [30]
  Corn plant response rating: 0
[11]; [28]
  Crabgrass, Large plant response rating: 0
[11]; [29]
  Plant response rating, Crabgrass, Large: 10
[11]; [30]
  Crabgrass, Large plant response rating: 60
[12]; [28]
  Foxtail, Giant plant response rating: 0
[12]; [29]
  Plant response rating, Foxtail, Giant: 10
[12]; [30]
  Foxtail, Giant plant response rating: 10
[12]; [31]
  Plant response rating, Foxtail, Giant: 0
[13]; [28]
  Lambsquarters plant response rating: 70
[13]; [29]
  Plant response rating, Lambsquarters: 90
[13]; [30]
  Lambsquarters plant response rating: 100
[13]; [31]
  Plant response rating, Lambsquarters: 100
[14]; [28]
  Morningglory plant response rating: 0
[14]; [29]
  Plant response rating, Morningglory: 0
[14]; [30]
  Morningglory plant response rating: 60
[14]; [31]
  Plant response rating, Morningglory: 50
[15]; [29]
  Plant response rating, Pigweed: 50
[15]; [30]
  Pigweed plant response rating: 70
[15]; [31]
  Plant response rating, Pigweed: 0
[16]; [29]
  Plant response rating, Velvetleaf: 30
[16]; [30]
  Velvetleaf plant response rating: 70
[16]; [31]
  Plant response rating, Velvetleaf: 0
[17]; [28]
  Blackgrass plant response rating: 0
[17]; [29]
  Plant response rating, Blackgrass: 0
[18]; [29]
  Plant response rating, Wheat: 10
[19]; [28]
  Oat, Wild plant response rating: 10
[19]; [29]
  Plant response rating, Oat, Wild: 20
[20]; [32]
  Rice plant response rating: 0
[21]; [32]
  Sedge, Umbrella plant response rating: 20
[22]; [32]
  Ducksalad plant response rating: 0
[23]; [32]
  Barnyardgrass plant response rating: 0

## C=CCN(CC=C)C(=O)c1cccc(NC(=O)c2nn(C(C)(C)C)nc2C)n1 [Compound 439]
[7]; [28]
  Barnyardgrass plant response rating: 0
[7]; [33]
  Barnyardgrass plant response rating: 0
[8]; [33]
  Surinam Grass plant response rating: 0
[8]; [34]
  Surinam Grass plant response rating: 0
[9]; [33]
  Cocklebur plant response rating: 0
[9]; [34]
  Cocklebur plant response rating: 0
[10]; [33]
  Corn plant response rating: 0
[10]; [34]
  Corn plant response rating: 0
[11]; [33]
  Crabgrass, Large plant response rating: 0
[11]; [34]
  Crabgrass, Large plant response rating: 0
[12]; [33]
  Foxtail, Giant plant response rating: 0
[12]; [34]
  Foxtail, Giant plant response rating: 0
[13]; [33]
  Lambsquarters plant response rating: 0
[13]; [34]
  Lambsquarters plant response rating: 0
[14]; [33]
  Morningglory plant response rating: 30
[14]; [34]
  Morningglory plant response rating: 0
[15]; [33]
  Pigweed plant response rating: 10
[15]; [34]
  Pigweed plant response rating: 0
[16]; [33]
  Velvetleaf plant response rating: 0
[16]; [34]
  Velvetleaf plant response rating: 0
[17]; [33]
  Blackgrass plant response rating: 10
[17]; [34]
  Blackgrass plant response rating: 0
[18]; 500 g ai/ha, scale 0 to 100, 0 no effect, 100 complete control, preemergence
  Wheat plant response rating: 0
[18]; [33]
  Wheat plant response rating: 10
[18]; [34]
  Wheat plant response rating: 0
[19]; [33]
  Oat, Wild plant response rating: 10
[19]; [34]
  Oat, Wild plant response rating: 0
[20]; 125 g ai/ha
  Rice plant response rating: 0
[21]; 125 g ai/ha
  Sedge, Umbrella plant response rating: 0
[22]; 125 g ai/ha
  Ducksalad plant response rating: 0
[23]; 125 g ai/ha
  Barnyardgrass plant response rating: 0
